Measured values published in ChEMBL document CHEMBL1131447 (J Med Chem, 1998).
pIC50, pKi: −log10 of the molar value.

What was measured:
[1] = organism: Mus musculus; assay: Inhibition of grooming-induced by SKF 38393 in mice.; type: functional
[2] = system: Rattus norvegicus; assay: In vivo antipsychotic activity measured by the induction of catalepsy in rats after po administration.; type: functional
[3] = organism: Mus musculus; assay: Inhibition of p-chloroamphetamine-induced hyperactivity in mice.; type: functional
[4] = organism: Rattus norvegicus; assay: Inhibition of apomorphine-induced stereotypy in rats.; type: functional
[5] = biological target: Beta-1 adrenergic receptor (Rattus norvegicus, UniProt P18090); assay: Binding affinity measured at the Beta-1 adrenergic receptor by the inhibition of [3H]DHA binding to rat cortex using unlabeled isoprenalin for nonspecific binding.
Beta-1 adrenergic receptor, sequence (P18090 whole entry): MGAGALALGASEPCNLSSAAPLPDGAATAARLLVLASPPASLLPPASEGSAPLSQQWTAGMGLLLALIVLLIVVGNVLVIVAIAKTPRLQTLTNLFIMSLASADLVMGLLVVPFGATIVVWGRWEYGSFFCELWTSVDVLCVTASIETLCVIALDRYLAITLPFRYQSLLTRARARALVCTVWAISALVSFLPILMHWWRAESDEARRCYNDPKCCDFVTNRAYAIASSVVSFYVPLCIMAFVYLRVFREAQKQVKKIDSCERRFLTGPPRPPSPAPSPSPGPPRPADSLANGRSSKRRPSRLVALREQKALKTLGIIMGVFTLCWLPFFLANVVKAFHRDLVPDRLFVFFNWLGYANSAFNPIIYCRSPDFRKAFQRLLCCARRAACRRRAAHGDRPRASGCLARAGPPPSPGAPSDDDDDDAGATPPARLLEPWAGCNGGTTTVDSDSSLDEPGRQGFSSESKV

[6] = system: Mus musculus; assay: In vivo antipsychotic activity measured by the inhibition of apomorphine-induced climbing behavior in mice after 30 min po administration.; type: functional; details: 0.5 h
[7] = system: Rattus norvegicus; assay: In vivo antipsychotic activity measured by the induction of catalepsy in rats after po administration; type: functional
[8] = organism: Mus musculus; assay: Inhibition of head twitches-induced by 2,5-dimethoxy-4-iodoamphetamine in mice.; type: functional
[9] = biological target: T1, 5-hydroxytryptamine receptor 2A (Rattus norvegicus, UniProt P14842)
T1 sequence (P14842 whole entry): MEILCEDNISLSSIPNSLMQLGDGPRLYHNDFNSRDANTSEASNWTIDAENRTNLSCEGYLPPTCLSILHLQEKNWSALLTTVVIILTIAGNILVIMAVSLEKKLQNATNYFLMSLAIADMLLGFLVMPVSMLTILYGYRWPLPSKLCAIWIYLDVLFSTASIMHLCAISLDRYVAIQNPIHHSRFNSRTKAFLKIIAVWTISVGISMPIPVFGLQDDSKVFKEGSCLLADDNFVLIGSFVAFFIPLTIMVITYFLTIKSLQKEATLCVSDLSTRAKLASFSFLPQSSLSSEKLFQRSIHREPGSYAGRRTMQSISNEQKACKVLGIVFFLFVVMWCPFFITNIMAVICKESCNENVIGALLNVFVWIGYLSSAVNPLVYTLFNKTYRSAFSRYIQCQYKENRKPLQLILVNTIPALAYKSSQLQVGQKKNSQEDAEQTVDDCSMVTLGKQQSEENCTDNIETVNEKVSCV

[10] = biological target: Adrenergic receptor beta (Rattus norvegicus, UniProt P18090+P10608+P26255); assay: Binding affinity measured at the Beta adrenergic receptor by the inhibition of [3H]DHA binding to rat cortex using unlabeled isoprenalin for nonspecific binding.
[11] = biological target: T2, Alpha-1A adrenergic receptor (Rattus norvegicus, UniProt P43140)
T2 sequence (P43140 whole entry): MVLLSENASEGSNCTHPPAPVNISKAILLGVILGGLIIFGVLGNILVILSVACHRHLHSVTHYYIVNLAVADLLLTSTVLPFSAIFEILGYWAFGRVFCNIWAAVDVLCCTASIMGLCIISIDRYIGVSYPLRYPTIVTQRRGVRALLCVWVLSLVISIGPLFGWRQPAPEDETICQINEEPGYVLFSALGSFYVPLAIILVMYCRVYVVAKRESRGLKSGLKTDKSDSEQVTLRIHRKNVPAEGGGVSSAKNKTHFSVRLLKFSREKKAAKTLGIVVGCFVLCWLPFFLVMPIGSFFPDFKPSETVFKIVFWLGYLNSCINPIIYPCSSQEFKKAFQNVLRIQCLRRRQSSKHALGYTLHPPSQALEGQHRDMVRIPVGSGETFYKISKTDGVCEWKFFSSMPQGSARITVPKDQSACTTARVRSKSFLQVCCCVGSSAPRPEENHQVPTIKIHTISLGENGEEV
Description: Binding affinity measured at the Alpha-1A adrenergic receptor by the inhibition of [3H]prazosin binding to rat cortex using unlabeled WB-4101 for nonspecific binding.

[12] = biological target: T3, D(4) dopamine receptor (Homo sapiens, UniProt P21917); assay: biochemical
T3 sequence (P21917 whole entry): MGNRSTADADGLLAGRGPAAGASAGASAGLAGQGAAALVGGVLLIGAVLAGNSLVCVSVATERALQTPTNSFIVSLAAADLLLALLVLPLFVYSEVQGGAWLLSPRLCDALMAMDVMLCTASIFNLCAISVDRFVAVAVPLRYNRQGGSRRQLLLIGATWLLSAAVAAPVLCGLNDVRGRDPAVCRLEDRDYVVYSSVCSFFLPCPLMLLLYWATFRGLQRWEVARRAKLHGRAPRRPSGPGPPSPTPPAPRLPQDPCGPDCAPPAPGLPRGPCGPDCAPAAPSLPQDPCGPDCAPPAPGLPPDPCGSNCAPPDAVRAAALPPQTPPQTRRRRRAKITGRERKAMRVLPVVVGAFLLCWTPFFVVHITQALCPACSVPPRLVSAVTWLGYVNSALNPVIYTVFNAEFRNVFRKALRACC

[13] = biological target: D(3) dopamine receptor (Homo sapiens, UniProt P35462); assay: Binding affinity measured at the Dopamine receptor D3 by the inhibition of [3H]YM-09151-2 binding to human recombinant CCL 1.3 cells using unlabeled 7-OH-DPAT for nonspecific binding.
D(3) dopamine receptor, sequence (P35462 whole entry): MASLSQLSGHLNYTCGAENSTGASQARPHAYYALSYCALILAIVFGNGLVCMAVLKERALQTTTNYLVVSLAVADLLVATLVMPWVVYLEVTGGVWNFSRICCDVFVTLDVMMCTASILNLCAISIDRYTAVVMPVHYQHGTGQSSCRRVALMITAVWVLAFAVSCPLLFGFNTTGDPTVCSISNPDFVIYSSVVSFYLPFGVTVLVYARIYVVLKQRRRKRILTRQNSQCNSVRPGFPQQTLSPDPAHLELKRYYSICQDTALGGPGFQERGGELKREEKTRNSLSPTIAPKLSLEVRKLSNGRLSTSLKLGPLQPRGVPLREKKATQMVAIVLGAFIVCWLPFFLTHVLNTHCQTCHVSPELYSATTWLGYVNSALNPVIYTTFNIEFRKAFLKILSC

[14] = biological target: D(1A) dopamine receptor (Rattus norvegicus, UniProt P18901); assay: biochemical
D(1A) dopamine receptor, sequence (P18901 whole entry): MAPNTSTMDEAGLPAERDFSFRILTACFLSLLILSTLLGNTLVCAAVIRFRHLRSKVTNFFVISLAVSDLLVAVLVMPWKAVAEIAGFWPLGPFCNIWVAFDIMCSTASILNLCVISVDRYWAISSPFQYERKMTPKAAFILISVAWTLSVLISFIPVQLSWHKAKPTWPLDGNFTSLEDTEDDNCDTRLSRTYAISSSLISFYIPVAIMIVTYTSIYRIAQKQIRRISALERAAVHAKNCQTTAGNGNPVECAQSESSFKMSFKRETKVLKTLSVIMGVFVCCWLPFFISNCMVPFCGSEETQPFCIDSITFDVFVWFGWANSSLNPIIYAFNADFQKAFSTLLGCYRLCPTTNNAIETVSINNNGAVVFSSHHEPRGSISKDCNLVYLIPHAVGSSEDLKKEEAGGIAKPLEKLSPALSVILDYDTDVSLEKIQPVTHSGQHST
Description: Binding affinity measured at the Dopamine receptor D1 by the inhibition of [3H]SCH-23390 binding to rat striatum using unlabeled apomorphine for nonspecific binding.

[15] = biological target: T1, 5-hydroxytryptamine receptor 2A; remark: listed apart in the source
Description: Binding affinity measured at the 5-hydroxytryptamine 2A receptor by the inhibition of [3H]ketanserin binding to rat cortex using unlabeled mianserin for nonspecific binding.

[16] = biological target: T4, Adrenergic receptor alpha-2 (Rattus norvegicus, UniProt P22086+P19328+P22909); assay: Binding affinity measured at the Alpha-2 adrenergic receptor by the inhibition of [3H]clonidine binding to rat cortex using unlabeled NAbitartrate for nonspecific binding.
T4 sequence (P22086 whole entry): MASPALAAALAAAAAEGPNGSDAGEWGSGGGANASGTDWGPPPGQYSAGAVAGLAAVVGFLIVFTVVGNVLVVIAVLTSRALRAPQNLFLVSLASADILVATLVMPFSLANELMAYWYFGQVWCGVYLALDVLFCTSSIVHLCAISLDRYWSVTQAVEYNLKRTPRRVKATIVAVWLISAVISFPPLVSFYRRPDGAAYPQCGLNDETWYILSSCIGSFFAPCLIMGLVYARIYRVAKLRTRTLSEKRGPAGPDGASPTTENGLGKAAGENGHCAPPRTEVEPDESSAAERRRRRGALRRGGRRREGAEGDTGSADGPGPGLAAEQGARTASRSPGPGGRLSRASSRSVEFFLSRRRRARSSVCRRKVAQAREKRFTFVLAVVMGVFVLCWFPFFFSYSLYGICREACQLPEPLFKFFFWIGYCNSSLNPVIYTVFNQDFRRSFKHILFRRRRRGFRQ
T4 sequence (P19328 whole entry): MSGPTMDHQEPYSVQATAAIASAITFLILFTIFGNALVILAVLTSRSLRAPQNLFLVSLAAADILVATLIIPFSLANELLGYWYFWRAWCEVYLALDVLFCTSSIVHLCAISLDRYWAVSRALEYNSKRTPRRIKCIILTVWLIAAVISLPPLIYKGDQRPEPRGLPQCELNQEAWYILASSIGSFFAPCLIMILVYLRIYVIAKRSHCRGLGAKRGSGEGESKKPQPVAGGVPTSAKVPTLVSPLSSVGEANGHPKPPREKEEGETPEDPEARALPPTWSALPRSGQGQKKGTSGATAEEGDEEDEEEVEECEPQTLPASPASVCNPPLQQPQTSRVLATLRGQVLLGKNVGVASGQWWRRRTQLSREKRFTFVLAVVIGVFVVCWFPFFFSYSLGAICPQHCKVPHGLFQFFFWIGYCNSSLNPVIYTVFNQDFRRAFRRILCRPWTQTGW
T4 sequence (P22909 whole entry): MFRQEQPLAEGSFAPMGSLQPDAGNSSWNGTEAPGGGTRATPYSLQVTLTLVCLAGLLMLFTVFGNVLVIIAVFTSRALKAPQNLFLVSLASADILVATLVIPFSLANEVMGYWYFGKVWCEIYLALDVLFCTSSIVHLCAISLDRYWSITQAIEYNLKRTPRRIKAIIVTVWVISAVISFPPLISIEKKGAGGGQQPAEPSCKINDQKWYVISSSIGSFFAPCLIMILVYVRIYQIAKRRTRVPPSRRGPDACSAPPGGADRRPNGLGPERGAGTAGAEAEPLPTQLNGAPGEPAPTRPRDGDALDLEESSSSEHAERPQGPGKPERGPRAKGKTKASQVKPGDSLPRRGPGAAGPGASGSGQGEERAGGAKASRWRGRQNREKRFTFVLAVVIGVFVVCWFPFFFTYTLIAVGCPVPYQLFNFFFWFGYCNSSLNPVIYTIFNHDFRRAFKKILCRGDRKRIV

[17] = biological target: T5, 5-hydroxytryptamine receptor 1A (Rattus norvegicus, UniProt P19327); assay: Binding affinity measured at the 5-hydroxytryptamine 1A receptor by the inhibition of [3H]8-OH-DPAT binding to rat cortex using unlabeled buspirone for nonspecific binding.
T5 sequence (P19327 whole entry): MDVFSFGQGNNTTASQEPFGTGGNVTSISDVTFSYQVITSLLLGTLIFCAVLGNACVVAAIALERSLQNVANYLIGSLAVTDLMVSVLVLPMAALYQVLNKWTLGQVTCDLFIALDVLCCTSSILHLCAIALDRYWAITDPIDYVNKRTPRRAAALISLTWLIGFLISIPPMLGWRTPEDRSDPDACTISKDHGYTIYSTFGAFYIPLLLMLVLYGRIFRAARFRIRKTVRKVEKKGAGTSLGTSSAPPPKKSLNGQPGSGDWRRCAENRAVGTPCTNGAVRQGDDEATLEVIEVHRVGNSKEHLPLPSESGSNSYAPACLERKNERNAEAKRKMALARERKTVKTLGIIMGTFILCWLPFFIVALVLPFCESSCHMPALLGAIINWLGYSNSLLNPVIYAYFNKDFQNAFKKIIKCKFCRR

[18] = biological target: Muscarinic acetylcholine receptor; assay: Binding affinity measured at the Muscarinic acetylcholine receptor by the inhibition of [3H]-pyrilamine binding to guinea pig cerebellum using unlabeled Triprolidine for nonspecific binding.; type: tissue-based, Cavia porcellus

SMILES: Cc1nc2n(c(=O)c1CCN1CCC(c3noc4cc(F)ccc34)CC1)CCCC2 [RISPERIDONE]
- ED50 [1]: 0.41 mg/kg
- ED50 [2]: 5 mg/kg
- ED50 [3]: 0.2 mg/kg
- ED50 [4]: 9.7 mg/kg
- pKi [5]: 4.66
- ED50 [6]: 0.29 mg/kg

SMILES: O=Cc1coc2cc(OCCCN3CCC(c4noc5cc(F)ccc45)CC3)ccc2c1=O
- ED50 [7]: 15.9 mg/kg
- ED50 [6]: 3.32 mg/kg

SMILES: CN1CCN(C2=Nc3cc(Cl)ccc3Nc3ccccc32)CC1 [CLOZAPINE]
- ED50 [1]: 0.33 mg/kg
- ED50 [2]: > 100 mg/kg
- ED50 [3]: 6.41 mg/kg
- ED50 [8]: 0.85 mg/kg
- ED50 [4]: > 100 mg/kg
- ED50 [6]: 15.4 mg/kg

SMILES: O=C(CCCN1CCC(O)(c2ccc(Cl)cc2)CC1)c1ccc(F)cc1 [HALOPERIDOL]
- ED50 [1]: 0.28 mg/kg
- ED50 [2]: 2 mg/kg
- ED50 [3]: 0.3 mg/kg
- ED50 [8]: 0.56 mg/kg
- ED50 [6]: 0.31 mg/kg

SMILES: COCc1coc2cc(OCCCN3CCC(c4noc5cc(F)ccc45)CC3)ccc2c1=O
- ED50 [2]: 6.88 mg/kg
- pIC50 [9]: 8.85
- ED50 [6]: 0.27 mg/kg

SMILES: Cc1coc2cc(OCCCN3CCC(c4noc5cc(F)ccc45)CC3)ccc2c1=O
- ED50 [2]: 2.85 mg/kg
- ED50 [6]: 0.4 mg/kg

SMILES: Cc1coc2cc(OCCCN3CCC(C(=O)c4ccc(F)cc4)CC3)ccc2c1=O
- pIC50 [9]: 7.60

SMILES: O=c1cc(CO)oc2cc(OCCCN3CCC(c4noc5cc(F)ccc45)CC3)ccc12
- ED50 [2]: > 100 mg/kg
- pIC50 [9]: 8.14
- ED50 [6]: 5.88 mg/kg

SMILES: O=C(O)c1coc2cc(OCCCN3CCC(c4noc5cc(F)ccc45)CC3)ccc2c1=O
- ED50 [2]: > 50 mg/kg
- ED50 [6]: > 10 mg/kg

SMILES: O=c1c(CO)coc2cc(OCCCN3CCC(c4noc5cc(F)ccc45)CC3)ccc12 [ABAPERIDONE]
- ED50 [1]: 0.31 mg/kg
- Ki [10]: 2.99 µM
- pKi [11]: 8.62
- ED50 [2]: 8.48 mg/kg
- pKi [12]: 6.75
- pKi [13]: 8.27
- pIC50 [9]: 8.21
- ED50 [3]: 0.16 mg/kg
- pKi [14]: 6.62
- ED50 [8]: 0.08 mg/kg
- pKi [15]: 8.72
- ED50 [4]: 18.6 mg/kg
- Ki [16]: 0.169 µM
- pKi [17]: 7.03
- Ki [18]: 1.13 µM
- ED50 [6]: 0.24 mg/kg

SMILES: O=c1ccoc2cc(OCCCN3CCC(c4noc5cc(F)ccc45)CC3)ccc12
- ED50 [2]: 12.6 mg/kg
- pIC50 [9]: 8.07
- ED50 [6]: 1.08 mg/kg

SMILES: O=C(c1ccc(F)cc1)C1CCN(CCCOc2ccc3c(=O)c(CO)coc3c2)CC1
- ED50 [2]: 13 mg/kg
- pIC50 [9]: 7.48
- ED50 [6]: 2.02 mg/kg
